Literature values, collected in patent publication US12364989B2, “High throughput method and system for analyzing the effects of agents on planaria” (priority 2019, dated 2025).

How the values were obtained:
planaria [1] = tested on: planaria
planarians = details: regenerating compared with intact animals
planaria [2] = details: Hagstrom et al., Toxicological Sciences 2015

SMILES: CN(C)C=O [N,N-dimethylformamide]
- effect on auricle regeneration (planaria [1]; morphological endpoint, Zhang et al., Toxicological and Industrial Health 2013): effect

SMILES: CCO [ethanol]
- sensitivity of regenerating planarians (planarians): increased sensitivity

SMILES: CC1(C)C(C=C(Cl)Cl)C1C(=O)OCc1cccc(Oc2ccccc2)c1 (centres unmarked) [permethrin]
- blastema growth rate (planaria [2]): did not affect
- eye reappearance (planaria [1]; Hagstrom et al., Toxicological Sciences 2015): did delay

SMILES: C[S+](C)[O-] [DMSO, Dimethyl sulfoxide]
- sensitivity of regenerating planarians (planarians): increased sensitivity
